Reference: patent publication US20070026080A1, “Manufacturing process for tigecycline” (Wyeth, priority 2005, published 2007)

Assay: Strength and degradation profile of tigecycline 20 mg/mL bulk solutions by reversed phase HPLC (effect of temperature, time, pH, dissolved oxygen; Runs A to O)
Assay type: physicochemical
Conditions: 8° C.
Method: The contents of the sample vials are dissolved in diluent. The sample solution is diluted, if necessary, and chromatographed on a reversed phase column using gradient elution. Impurities are determined by comparing the impurity peak areas in the sample preparation chromatogram to the average area of tigecycline peaks in the standard preparation chromatograms obtained concomitantly.
Chromatographic Column—Length about 15 cm, inside diameter about 4.6 mm, packed with Inertsil ODS2, 5 μm size particles or equivalent.
Detector—Ultraviolet spectrophotometric detector capable of operating at 248 nm with a sensitivity of about 0.5 absorbance units full scale.
The results of additional studies to investigate the effect of processing parameters such as temperature, time, and dissolved oxygen content on the purity profile of tigecycline solutions using the following materials, methods and procedures are presented in Tables A to O.
The experiments were run in plastic glove bags under normal laboratory light conditions. Plastic glove boxes will be used to control the headspace of the beakers. The batch size was 200 mL. • 1. Prepare the glove bag with a mixture of nitrogen and air to achieve an oxygen level in the solution as per the design. • 2. Place the jacketed beaker on the magnetic stirrer. Connect it to the cooler. Set the cooler to the desired set point. • 3. Add 200 mL of SWFI in to the beaker. Allow equilibrating. Measure the temperature and oxygen content. When it reaches the desired condition, add accurately weighed API and mix until dissolved. If necessary use spatula to aid dissolution. For pH adjustments, use 4 mL of either 0.1N NaOH or 0.1N HCl and 196 mL of WFI for manufacture. • 4. After complete dissolution, Transfer about 5.5 mL of Solution in vials and stopper them. These vials will be stoppered at the appropriate headspace conditions. Place the vials in appropriate temperature conditions. • 5. Sample the vials at 1, 4, 8, 10, 12 and 24 hours. Send the samples for analysis. Freeze the 10, 12 and 24 samples at −20° C. for analysis the following day. • 6. Measure pH and record color of the solution at each time point. Results
The 1-hour samples were taken directly from the beakers. Samples for later time points were collected in stoppered vials processed in the atmosphere of the bag in order to simulate the headspace conditions then placed in water baths or refrigerator to maintain there respective temperature conditions. This was done to maintain safety in the lab. Disposable plastic glove bags require constant flow of a mixture of nitrogen and air to maintain headspace oxygen level that will result in the desired dissolved oxygen (DO) content in the sample. The pH of samples was measured at each sample points.
Strength and degradation profile was analyzed by HPLC as described above. […] Degradation was slightly higher at higher temperature condition.

[1] = Run #M, pH 7.7, Oxygen = 0.1 mg/L, 10 Hrs
[2] = Run #M, pH 7.7, Oxygen = 0.1 mg/L, 12 Hrs
[3] = Run #M, pH 7.7, Oxygen = 0.1 mg/L, 24 Hrs
[4] = Run #N, pH 8.2, Oxygen = 0.1 mg/L, 1 Hrs
[5] = Run #N, pH 8.2, Oxygen = 0.1 mg/L, 1R Hrs
[6] = Run #N, pH 8.2, Oxygen = 0.1 mg/L, 4 Hrs

## CN(C)c1cc(NC(=O)CNC(C)(C)C)c(O)c2c1C[C@H]1C[C@H]3[C@H](N(C)C)C(O)=C(C(N)=O)C(=O)[C@@]3(O)C(O)=C1C2=O [Tigecycline]
[1]
  RRT 1.12: BRL (BRL means below reporting limit (meaning less than 0.05% of tigecycline peak))
  RRT 1.45: 0.07%
  RRT 1.58: BRL (BRL means below reporting limit (meaning less than 0.05% of tigecycline peak))
  RRT 1.64 Mino: 0.09%
  RRT 1.67 MW = 556: (<0.05) %
  RRT 1.85 MW = 597: 0.08%
  Strength: 19.240 mg/mL
  Total: 0.71%
[2]
  RRT 0.12 MW = 633: BRL (BRL means below reporting limit (meaning less than 0.05% of tigecycline peak))
  RRT 0.23 MW = 572: BRL (BRL means below reporting limit (meaning less than 0.05% of tigecycline peak))
  RRT 0.50 MW = 601: BRL (BRL means below reporting limit (meaning less than 0.05% of tigecycline peak))
  RRT 0.55 MW = 583: 0.07%
  RRT 0.58: BRL (BRL means below reporting limit (meaning less than 0.05% of tigecycline peak))
  RRT 0.64 9-Amino: BRL (BRL means below reporting limit (meaning less than 0.05% of tigecycline peak))
  RRT 0.74 Epimer: 0.27%
  RRT 0.76: 0.05%
  RRT 0.78 MW = 557: BRL (BRL means below reporting limit (meaning less than 0.05% of tigecycline peak))
  RRT 1.12: BRL (BRL means below reporting limit (meaning less than 0.05% of tigecycline peak))
  RRT 1.45: 0.07%
  RRT 1.58: BRL (BRL means below reporting limit (meaning less than 0.05% of tigecycline peak))
  RRT 1.64 Mino: 0.12%
  RRT 1.67 MW = 556: 0.07%
  RRT 1.85 MW = 597: 0.08%
  Strength: 19.240 mg/mL
  Total: 0.73%
[3]
  RRT 0.12 MW = 633: BRL (BRL means below reporting limit (meaning less than 0.05% of tigecycline peak))
  RRT 0.23 MW = 572: BRL (BRL means below reporting limit (meaning less than 0.05% of tigecycline peak))
  RRT 0.50 MW = 601: BRL (BRL means below reporting limit (meaning less than 0.05% of tigecycline peak))
  RRT 0.55 MW = 583: BRL (BRL means below reporting limit (meaning less than 0.05% of tigecycline peak))
  RRT 0.58: 0.08%
  RRT 0.64 9-Amino: BRL (BRL means below reporting limit (meaning less than 0.05% of tigecycline peak))
  RRT 0.74 Epimer: 0.29%
  RRT 0.76: BRL (BRL means below reporting limit (meaning less than 0.05% of tigecycline peak))
  RRT 0.78 MW = 557: BRL (BRL means below reporting limit (meaning less than 0.05% of tigecycline peak))
  RRT 1.12: BRL (BRL means below reporting limit (meaning less than 0.05% of tigecycline peak))
  RRT 1.45: 0.09%
  RRT 1.58: BRL (BRL means below reporting limit (meaning less than 0.05% of tigecycline peak))
  RRT 1.64 Mino: 0.09%
  RRT 1.67 MW = 556: (<0.05) %
  RRT 1.85 MW = 597: 0.08%
  Strength: 19.193 mg/mL
  Total: 0.62%
Run #N, pH 8.2, Oxygen = 0.1 mg/L
  RRT 1.12: BRL (BRL means below reporting limit (meaning less than 0.05% of tigecycline peak))
[4]
  RRT 0.12 MW = 633: BRL (BRL means below reporting limit (meaning less than 0.05% of tigecycline peak))
  RRT 0.23 MW = 572: BRL (BRL means below reporting limit (meaning less than 0.05% of tigecycline peak))
  RRT 0.50 MW = 601: BRL (BRL means below reporting limit (meaning less than 0.05% of tigecycline peak))
  RRT 0.55 MW = 583: BRL (BRL means below reporting limit (meaning less than 0.05% of tigecycline peak))
  RRT 0.58: 0.07%
  RRT 0.64 9-Amino: BRL (BRL means below reporting limit (meaning less than 0.05% of tigecycline peak))
  RRT 0.74 Epimer: 0.20%
  RRT 0.76: BRL (BRL means below reporting limit (meaning less than 0.05% of tigecycline peak))
  RRT 0.78 MW = 557: BRL (BRL means below reporting limit (meaning less than 0.05% of tigecycline peak))
  RRT 1.12: BRL (BRL means below reporting limit (meaning less than 0.05% of tigecycline peak))
  RRT 1.45: 0.07%
  RRT 1.58: BRL (BRL means below reporting limit (meaning less than 0.05% of tigecycline peak))
  RRT 1.64 Mino: (<0.05) %
  RRT 1.67 MW = 556: BRL (BRL means below reporting limit (meaning less than 0.05% of tigecycline peak))
  RRT 1.85 MW = 597: 0.11%
  Strength: 19.343 mg/mL
  Total: 0.46%
[5]
  RRT 0.12 MW = 633: BRL (BRL means below reporting limit (meaning less than 0.05% of tigecycline peak))
  RRT 0.23 MW = 572: BRL (BRL means below reporting limit (meaning less than 0.05% of tigecycline peak))
  RRT 0.50 MW = 601: BRL (BRL means below reporting limit (meaning less than 0.05% of tigecycline peak))
  RRT 0.55 MW = 583: 0.06%
  RRT 0.58: 0.06%
  RRT 0.64 9-Amino: BRL (BRL means below reporting limit (meaning less than 0.05% of tigecycline peak))
  RRT 0.74 Epimer: 0.29%
  RRT 0.76: 0.05%
  RRT 0.78 MW = 557: BRL (BRL means below reporting limit (meaning less than 0.05% of tigecycline peak))
  RRT 1.45: 0.09%
  RRT 1.58: BRL (BRL means below reporting limit (meaning less than 0.05% of tigecycline peak))
  RRT 1.64 Mino: 0.08%
  RRT 1.67 MW = 556: BRL (BRL means below reporting limit (meaning less than 0.05% of tigecycline peak))
  RRT 1.85 MW = 597: 0.09%
  Strength: 19.415 mg/mL
  Total: 0.72%
[6]
  RRT 0.12 MW = 633: BRL (BRL means below reporting limit (meaning less than 0.05% of tigecycline peak))
  RRT 0.23 MW = 572: BRL (BRL means below reporting limit (meaning less than 0.05% of tigecycline peak))
  RRT 0.50 MW = 601: BRL (BRL means below reporting limit (meaning less than 0.05% of tigecycline peak))
  RRT 0.55 MW = 583: BRL (BRL means below reporting limit (meaning less than 0.05% of tigecycline peak))
  RRT 0.58: 0.07%
  RRT 0.64 9-Amino: BRL (BRL means below reporting limit (meaning less than 0.05% of tigecycline peak))
  RRT 0.74 Epimer: 0.21%
  RRT 0.76: BRL (BRL means below reporting limit (meaning less than 0.05% of tigecycline peak))
